Reference: ChEMBL document CHEMBL1629473, “Convenient synthesis and biological profile of 5-amino-substituted 1,2,4-oxadiazole derivatives” (Eur J Med Chem, 2010)

Legend:
[1] = Induction of NO release in phosphate buffer pH 7.4 containing 0.5 mM thiophenol assessed as nitrite level at 100 uM after 60 mins by Griess assay; format: physicochemical; conditions: pH 7.4, 1 h
[2] = test system: Radical scavenging activity; test: Antioxidant activity assessed as DPPH free radical scavenging activity at 100 uM after 20 mins; format: functional
[3] = test system: Radical scavenging activity; test: Antioxidant activity assessed as DPPH free radical scavenging activity at 100 uM after 60 mins; format: functional
[4] = test system: Rattus norvegicus; test: Antiinflammatory activity in Fisher 344 rat assessed as inhibition of carrageenan-induced paw edema at 0.01 mmol/kg, ip measured 3.5 hrs after carrageenan challenge relative to control; format: functional; parameters: scale not given: the % may be the effect or the level left
[5] = Induction of NO release in phosphate buffer pH 7.4 containing 1 mM L-cysteine assessed as nitrite level at 100 uM after 60 mins by Griess assay; format: physicochemical; conditions: pH 7.4, 1 h
[6] = Induction of NO release in phosphate buffer pH 7.4 containing 5 mM L-cysteine assessed as nitrite level at 100 uM after 60 mins by Griess assay; format: physicochemical; conditions: pH 7.4, 1 h
[7] = Induction of NO release in phosphate buffer pH 7.4 containing 0.5 mM L-cysteine assessed as nitrite level at 100 uM after 60 mins by Griess assay; format: physicochemical; conditions: pH 7.4, 1 h
[8] = test system: Radical scavenging activity; test: Antioxidant activity assessed as DPPH free radical scavenging activity at 50 uM after 20 mins; format: functional
[9] = test system: Radical scavenging activity; test: Antioxidant activity assessed as DPPH free radical scavenging activity at 50 uM after 60 mins; format: functional
[10] = biological target: Lipoxygenase (Glycine max) (UniProt Q39829); test: Inhibition of soybean lipoxygenase at 100 uM by UV spectrophotometry; parameters: scale not given: the % may be the effect or the level left

NC(Cc1ccc(Cl)cc1)=NO
Activity [1]: 3%

c1ccc(Cc2noc(NC3CCCCC3)n2)cc1
Activity [2]: 9%
Activity [3]: 9%
Activity [1]: 7.5%

COc1ccc2c(c1)c(CC(=O)O)c(C)n2C(=O)c1ccc(Cl)cc1 [INDOMETHACIN]
Activity [4]: 47%

Cc1ccc(-c2noc(NC(C)C)n2)cc1
Activity [3]: 18%

COc1ccc(-c2noc(NC3CCCCC3)n2)cc1
Activity [5]: 2%
Activity [6]: 14%

CC(=O)N(c1nc(-c2ccc([N+](=O)[O-])cc2)no1)C1CCCCC1
Activity [2]: 3%
Activity [3]: 4%
Activity [5]: 8%
Activity [6]: 8%
Activity [7]: 12%
Activity [1]: 47%

Cc1ccc(-c2noc(NC3CCCCC3)n2)cc1
Activity [4]: 33%

CC(Cc1ccc(O)c(O)c1)C(C)Cc1ccc(O)c(O)c1 (configuration not stated)
Activity [8]: 77%
Activity [2]: 84%
Activity [9]: 81%
Activity [3]: 91%
Activity [10]: 83.7%

CC(C)Nc1nc(Cc2ccc(Cl)cc2)no1
Activity [2]: 8%
Activity [3]: 11%
Activity [4]: 43%
Activity [6]: 2%
Activity [1]: 4%

N/C(=N\O)c1cccc([N+](=O)[O-])c1
Activity [2]: 7%
Activity [3]: 15%
Activity [10]: 32%
Activity [4]: 26%

c1ccc(-c2noc(NC3CCCCC3)n2)cc1
Activity [10]: 38%
Activity [4]: 51%
Activity [5]: 2%
Activity [6]: 19%
Activity [7]: 4%

CC(=O)N(c1nc(-c2ccc(C)cc2)no1)C1CCCCC1
Activity [2]: 3%
Activity [3]: 3%
Activity [10]: 25.5%

O=[N+]([O-])c1cccc(-c2noc(NC3CCCCC3)n2)c1
Activity [2]: 11%
Activity [3]: 11%
Activity [10]: 74%
Activity [4]: 40%
Activity [6]: 3%
Activity [1]: 3%

Clc1ccc(Cc2noc(NC3CCCCC3)n2)cc1
Activity [2]: 7%
Activity [3]: 7%

CC(=O)N(c1nc(Cc2ccc(Cl)cc2)no1)C1CCCCC1
Activity [2]: 2%
Activity [3]: 5%
Activity [5]: 18%
Activity [6]: 12%
Activity [7]: 27.5%
Activity [1]: 39%

Cc1ccc(/C(N)=N/O)cc1
Activity [8]: 15%
Activity [2]: 21%
Activity [9]: 14%
Activity [3]: 26%
Activity [4]: 41%
Activity [6]: 8%

CCNc1nc(-c2ccc([N+](=O)[O-])cc2)no1
Activity [3]: 9%

O=[N+]([O-])c1ccc(-c2noc(NC3CCCCC3)n2)cc1
Activity [10]: > 5%

O=[N+]([O-])c1ccc(Cc2noc(NC3CCCCC3)n2)cc1
Activity [2]: 7%
Activity [3]: 7%

CC(C)Nc1nc(-c2cccc([N+](=O)[O-])c2)no1
Activity [2]: 6%
Activity [3]: 8%
Activity [10]: 88%
Activity [1]: 7%

COc1ccc(C(=N)NO)cc1
Activity [8]: 35%
Activity [2]: 57%
Activity [9]: 44%
Activity [3]: 57%
Activity [4]: 45%
Activity [5]: 5%
Activity [6]: 4%
Activity [7]: 4%

N/C(=N\O)c1ccc([N+](=O)[O-])cc1
Activity [2]: 9%
Activity [3]: 18%
Activity [10]: 24%

CC(=O)N(c1nc(-c2cccc([N+](=O)[O-])c2)no1)C(C)C
Activity [2]: 3%
Activity [3]: 4%
Activity [1]: 55%

NC(=NO)c1cccc([N+](=O)[O-])c1
Activity [6]: 4%

CCCc1noc(NC(C)C)n1
Activity [2]: 7%
Activity [3]: 7%

CN(C)CCCNc1nc(-c2ccc([N+](=O)[O-])cc2)no1
Activity [2]: 6%
Activity [3]: 4%
Activity [10]: 67%
Activity [7]: 7%
Activity [1]: 24%

NC(=NO)c1ccccc1 [BENZAMIDOXIME]
Activity [7]: 2%
Activity [1]: 6%

N/C(Cc1ccc(Cl)cc1)=N\O
Activity [3]: 16%
Activity [10]: 19%
Activity [4]: 47%

Cc1ccc(-c2noc(NCCCN(C)C)n2)cc1
Activity [2]: 6%
Activity [3]: 8%
Activity [7]: 7.5%
Activity [1]: 21%

CC(=O)N(c1nc(-c2cccc([N+](=O)[O-])c2)no1)C1CCCCC1
Activity [2]: 1%
Activity [3]: 2%
Activity [5]: 33%
Activity [6]: 33%
Activity [7]: 42.5%
Activity [1]: 71%

N/C(=N\O)c1ccccc1
Activity [8]: 8%
Activity [2]: 19%
Activity [3]: 30%

CC(C)Nc1nc(C2CCCCC2)no1
Activity [2]: 8%
Activity [3]: 11%
